Measured values from US20210078988A1, “MODULATORS OF INDOLEAMINE 2,3-DIOXYGENASE” (GLAXOSMITHKLINE INTELLECTUAL PROPERTY DEVELOPMENT LIMITED, priority 2017, published 2021).

biological target: T1, indoleamine 2, 3-dioxygenase (IDO1) (Homo sapiens, UniProt P14902); assay: PBMC IDO1 assay (kynurenine detection via mass spectrometry); format: cell-based; settings: human PBMC stimulated with IFN-γ and LPS, 2 days, kynurenine by mass spectrometry; read-out: IDO1 PBMC pIC50 (converted)
T1 construct: human peripheral blood mononuclear cells (PBMC) (PB003F; host or cells: human PBMC stimulated with IFN-gamma and LPS
In short: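 Human PBMCs (50,000/well) stimulated with IFN-γ 100 ng/ml and LPS 50 ng/ml were exposed to 11-point 3-fold compound dilutions for 2 days at 37 °C. Supernatant kynurenine was quantified by RapidFire MS relative to an internal standard; parallel CellTiter-Glo ATP luminescence measured cytotoxicity, with four-parameter curve fitting.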

T1 sequence (P14902 whole entry): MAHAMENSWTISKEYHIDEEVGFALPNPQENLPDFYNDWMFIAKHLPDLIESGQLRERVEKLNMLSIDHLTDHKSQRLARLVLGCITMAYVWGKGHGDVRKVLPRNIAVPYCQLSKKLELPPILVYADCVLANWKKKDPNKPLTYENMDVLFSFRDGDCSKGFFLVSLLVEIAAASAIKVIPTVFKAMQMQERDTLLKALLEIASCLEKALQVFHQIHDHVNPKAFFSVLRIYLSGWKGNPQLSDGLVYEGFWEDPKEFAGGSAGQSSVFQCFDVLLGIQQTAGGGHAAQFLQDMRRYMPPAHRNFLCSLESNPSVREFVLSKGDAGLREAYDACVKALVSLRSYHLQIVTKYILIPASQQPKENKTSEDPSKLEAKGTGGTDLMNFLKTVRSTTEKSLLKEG

Structure (SMILES) | IC50
CC#CCOc1ccc(C(=O)NC(CC2CCN(C(=O)OC(C)(C)C)CC2)c2ccccc2)cc1 (centres unmarked) [Example 149, tert-butyl 4-(2-(4-(but-2-yn-1-yloxy)benzamido)-2-phenylethyl)piperidine-1-carboxylate] | 79.4 nM
O=C(NC(CC1CCN(C(=O)OC2CCCCC2)CC1)c1ccccc1)c1ccc(Cl)cc1 (centres unmarked) [Example 150, cyclohexyl 4-(2-(4-chlorobenzamido)-2-phenylethyl)piperidine-1-carboxylate] | 79.4 nM
CC(C)(C)OC(=O)N1CCC(CC(NC(=O)c2ccc(Cl)cc2)C2CCCC2)CC1 (centres unmarked) [Example 151, tert-butyl 4-(2-(4-chlorobenzamido)-2-cyclopentylethyl)piperidine-1-carboxylate] | 79.4 nM
CC(C)(C)OC(=O)N1CCC(CC(NC(=O)c2ccc(F)cc2)C2CCCCC2)CC1 (centres unmarked) [Example 152, tert-butyl 4-(2-cyclohexyl-2-(4-fluorobenzamido)ethyl)piperidine-1-carboxylate] | 79.4 nM
Cc1cc(C(=O)NC(CC2CCN(C(=O)OC(C)(C)C)CC2)c2ccccc2)cs1 (centres unmarked) [Example 153, tert-butyl 4-(2-(5-methylthiophene-3-carboxamido)-2-phenylethyl)piperidine-1-carboxylate] | 79.4 nM
CCCC(=O)N1CCC(CC(NC(=O)c2ccc(Cl)cc2)c2ccccc2)CC1 (centres unmarked) [Example 154, N-(2-(1-butyrylpiperidin-4-yl)-1-phenylethyl)-4-chlorobenzamide] | 79.4 nM
C=CC[C@@H](CC1CCN(C(=O)OC(C)(C)C)CC1)NC(=O)c1ccc(Cl)s1 [Example 155, (S)-tert-butyl 4-(2-(5-chlorothiophene-2-carboxamido)pent-4-en-1-yl)piperidine-1-carboxylate] | 79.4 nM
Cc1ccc(C(=O)NC(CC2CCN(C(=O)c3ccccc3)CC2)c2ccccc2)s1 (centres unmarked) [Example 156, N-(2-(1-benzoylpiperidin-4-yl)-1-phenylethyl)-5-methylthiophene-2-carboxamide] | 79.4 nM
COc1ccc(C(=O)NC(CC2CCN(C(=O)OC(C)(C)C)CC2)c2ccccc2)cn1 (centres unmarked) [Example 157, tert-butyl 4-(2-(6-methoxynicotinamido)-2-phenylethyl)piperidine-1-carboxylate] | 100 nM
CCOC(=O)N1CCC(CC(NC(=O)c2ccc(OC)nc2)C2CC2)CC1 (centres unmarked) [Example 158, ethyl 4-(2-cyclopropyl-2-(6-methoxynicotinamido)ethyl)piperidine-1-carboxylate] | 100 nM
CC(C)(C)OC(=O)N1CCC(CC(NC(=O)c2ccsc2)c2ccccc2)CC1 (centres unmarked) [Example 159, tert-butyl 4-(2-phenyl-2-(thiophene-3-carboxamido)ethyl)piperidine-1-carboxylate] | 100 nM
CC(C)(C)OC(=O)N1CCC(CC(NC(=O)c2ccc(F)cc2)c2ccc(OCc3ccccc3)nc2)CC1 (centres unmarked) [Example 160, tert-butyl 4-(2-(6-(benzyloxy)pyridin-3-yl)-2-(4-fluorobenzamido)ethyl)piperidine-1-carboxylate] | 100 nM
COc1cc(C(=O)NC(CC2CCN(C(=O)OC(C)(C)C)CC2)c2ccccc2)ccc1Cl (centres unmarked) [Example 161, tert-butyl 4-(2-(4-chloro-3-methoxybenzamido)-2-phenylethyl)piperidine-1-carboxylate] | 100 nM
CC(C)(C)OC(=O)N1CCC(CC(NC(=O)c2ccc(C#N)c(F)c2)c2ccccc2)CC1 (centres unmarked) [Example 162, tert-butyl 4-(2-(4-cyano-3-fluorobenzamido)-2-phenylethyl)piperidine-1-carboxylate] | 100 nM
CC(C)CC(=O)N1CCC(CC(NC(=O)c2ccc(Cl)cc2)c2ccccc2)CC1 (centres unmarked) [Example 163, 4-chloro-N-(2-(1-(3-methylbutanoyl)piperidin-4-yl)-1-phenylethyl)benzamide] | 100 nM
CC(C)(C)CC(=O)N1CCC(CC(NC(=O)c2ccc(Cl)cc2)c2ccccc2)CC1 (centres unmarked) [Example 164, 4-chloro-N-(2-(1-(3,3-dimethylbutanoyl)piperidin-4-yl)-1-phenylethyl)benzamide] | 100 nM
CC(C)(C)NC(=O)N1CCC(CC(NC(=O)c2ccc(Cl)cc2)c2ccccc2)CC1 (centres unmarked) [Example 165, N-(tert-butyl)-4-(2-(4-chlorobenzamido)-2-phenylethyl)piperidine-1-carboxamide] | 100 nM
CC(C)CS(=O)(=O)N1CCC(CC(NC(=O)c2ccc(Cl)cc2)c2ccccc2)CC1 (centres unmarked) [Example 166, 4-chloro-N-(2-(1-(isobutylsulfonyl)piperidin-4-yl)-1-phenylethyl)benzamide] | 100 nM
CC#CCOc1ccc(C(=O)NC(CC2CCN(C(=O)OC(C)(C)C)CC2)c2ccccc2)cc1F (centres unmarked) [Example 167, tert-butyl 4-(2-(4-(but-2-yn-1-yloxy)-3-fluorobenzamido)-2-phenylethyl)piperidine-1-carboxylate] | 100 nM

Structure (SMILES) | IC50
CC(C)(C)OC(=O)N1CCC(CC(NC(=O)c2cc(Cl)cs2)c2ccccc2)CC1 (centres unmarked) [Example 168, tert-butyl 4-(2-(4-chlorothiophene-2-carboxamido)-2-phenylethyl)piperidine-1-carboxylate] | 100 nM
CCC(CC)c1nc(C(CC2CCN(C(=O)OC(C)(C)C)CC2)NC(=O)c2ccc(F)cc2)no1 (centres unmarked) [Example 169, tert-butyl 4-(2-(4-fluorobenzamido)-2-(5-(pentan-3-yl)-1,2,4-oxadiazol-3-yl)ethyl)piperidine-1-carboxylate] | 100 nM
CC(C)(C)OC(=O)N1CCC(C[C@H](Nc2ncc(-c3ccccc3)o2)C2CC2)CC1 [Example 170, (S)-tert-butyl 4-(2-cyclopropyl-2-((5-phenyloxazol-2-yl)amino)ethyl)piperidine-1-carboxylate] | 100 nM
CCCNc1nnc(C(CC2CCN(C(=O)OC(C)(C)C)CC2)NC(=O)c2ccc(Cl)s2)o1 (centres unmarked) [Example 171, tert-butyl 4-(2-(5-chlorothiophene-2-carboxamido)-2-(5-(propylamino)-1,3,4-oxadiazol-2-yl)ethyl)piperidine-1-carboxylate] | 100 nM
COC(=O)N1CCC(CC(NC(=O)c2ccc(F)cc2)c2ccccc2)CC1 (centres unmarked) [Example 173, methyl 4-(2-(4-fluorobenzamido)-2-phenylethyl)piperidine-1-carboxylate] | 126 nM
Cc1ccc(C(CC2CCN(C(=O)OC(C)(C)C)CC2)NC(=O)c2ccc(F)cc2)cn1 (centres unmarked) [Example 174, tert-butyl 4-(2-(4-fluorobenzamido)-2-(6-methylpyridin-3-yl)ethyl)piperidine-1-carboxylate] | 126 nM
CC(C)(C)OC(=O)N1CCC(CC(NC(=O)c2ccc3c(c2)OCO3)c2ccccc2)CC1 (centres unmarked) [Example 175, tert-butyl 4-(2-(benzo[d][1,3]dioxole-5-carboxamido)-2-phenylethyl)piperidine-1-carboxylate] | 126 nM
CC(C)(C)OC(=O)N1CCC(CC(NC(=O)c2ccc(F)cc2)c2ccc(=O)n(Cc3ccccc3)c2)CC1 (centres unmarked) [Example 176, tert-butyl 4-(2-(1-benzyl-6-oxo-1,6-dihydropyridin-3-yl)-2-(4-fluorobenzamido)ethyl)piperidine-1-carboxylate] | 126 nM
CCOC(=O)N1CCC(C[C@@H](NC(=O)c2ccc(Cl)s2)C2CC2)CC1 [Example 177, (R)-ethyl 4-(2-(5-chlorothiophene-2-carboxamido)-2-cyclopropylethyl)piperdine-1-carboxylate] | 126 nM
CSc1ccc(C(=O)NC(CC2CCN(C(=O)OC(C)(C)C)CC2)c2ccccc2)cc1 (centres unmarked) [Example 178, tert-butyl 4-(2-(4-(methylthio)benzamido)-2-phenylethyl)piperidine-1-carboxylate] | 126 nM
Cc1csc(C(=O)NC(CC2CCN(C(=O)OC(C)(C)C)CC2)c2ccccc2)c1 (centres unmarked) [Example 179, tert-butyl 4-(2-(4-methylthiophene-2-carboxamido)-2-phenylethyl)piperidine-1-carboxylate] | 126 nM
C=Cc1ccc(C(=O)NC(CC2CCN(C(=O)OC(C)(C)C)CC2)c2ccccc2)s1 (centres unmarked) [Example 180, tert-butyl 4-(2-phenyl-2-(5-vinylthiophene-2-carboxamido)ethyl)piperidine-1-carboxylate] | 126 nM
CC(C)(C)OC(=O)N1CCC(CC(NC(=O)c2cccc3cc[nH]c23)c2ccccc2)CC1 (centres unmarked) [Example 181, tert-butyl 4-(2-(1H-indole-7-carboxamido)-2-phenylethyl)piperidine-1-carboxylate] | 158 nM
CC(C)(C)OC(=O)N1CCC(CC(NC(=O)c2cc3ccccc3s2)c2ccccc2)CC1 (centres unmarked) [Example 182, tert-butyl 4-(2-(benzo[b]thiophene-2-carboxamido)-2-phenylethyl)piperidine-1-carboxylate] | 158 nM
COc1ccc([C@@H](CC2CCN(C(=O)OC(C)(C)C)CC2)NC(=O)c2ccc(F)cc2)cn1 [Example 183, (R)-tert-butyl 4-(2-(4-fluorobenzamido)-2-(6-methoxypyridin-3-yl)ethyl)piperidine-1-carboxylate] | 158 nM
CC(C)NC(=O)N1CCC(CC(NC(=O)c2ccc(Cl)cc2)c2ccccc2)CC1 (centres unmarked) [Example 184, 4-(2-(4-chlorobenzamido)-2-phenylethyl)-N-isopropylpiperidine-1-carboxamide] | 158 nM
O=C(NC(CC1CCN(C(=O)OC2COC2)CC1)c1ccccc1)c1ccc(Cl)cc1 (centres unmarked) [Example 185, oxetan-3-yl 4-(2-(4-chlorobenzamido)-2-phenylethyl)piperidine-1-carboxylate] | 158 nM
O=C(NC(CC1CCN(C(=O)OC2CCOCC2)CC1)c1ccccc1)c1ccc(Cl)cc1 (centres unmarked) [Example 186, tetrahydro-2H-pyran-4-yl 4-(2-(4-chlorobenzamido)-2-phenylethyl)piperidine-1-carboxylate] | 158 nM
CC(C)(C)COC(=O)N1CCC(CC(NC(=O)c2ccc(Cl)cc2)c2ccccc2)CC1 (centres unmarked) [Example 187, neopentyl 4-(2-(4-chlorobenzamido)-2-phenylethyl)piperidine-1-carboxylate] | 158 nM
